Reference: ChEMBL document CHEMBL1127036, “Design of antineoplastic agents on the basis of the "2-phenylnaphthalene-type" structural pattern. 2. Synthesis and biological activity studies of benzo]b]naphtho[2,3-d]furan-6,11-dione derivatives” (J Med Chem, 1993)
Active and inactive are the calls of the source. The rule behind the calls is not given here.

Assays:
Type in all cases: functional, cell-based
N592 = experiment: Cytotoxicity against human small-cell lung cancer (SCLC)
[1] = Cytotoxicity against human SCLC cells resistant to cisplatin (SCLC/CDDP)
HL-60 = experiment: Tested for inhibition against human promyelocytic leukemia cells (HL-60 )
Tumor Cell line [2] = experiment: Tested for the inhibition of human cancer cell growth (NCI drug-discovery screen.)
CCRF-CEM [3] = experiment: Tested for inhibition against CEM/MDR (multidrug resistant) cells; conditions: Homo sapiens
CCRF-CEM [4] = experiment: Tested for inhibition against CEM cells; conditions: Homo sapiens
Tumor Cell line [5] = experiment: Tested for the inhibition of human cancer cell growth (NCI drug-discovery screen.); Inactive

Molecule	IC50 (N592; Homo sapiens, N592)	IC50 ([1]; Homo sapiens, SCLC)	IC50 (HL-60)	IC50 (Tumor Cell line [2])	IC50 (CCRF-CEM [3])	IC50 (CCRF-CEM [4])	Log IC50 (Tumor Cell line [5])	IC50 (N592; n592)	IC50 ([1]; sclc)
COc1cccc2c1C(=O)c1c(O)c3c(c(O)c1C2=O)C[C@@](O)(C(=O)CO)C[C@@H]3O[C@H]1C[C@H](N)[C@H](O)[C@H](C)O1 [DOXORUBICIN]	40 nM	30 nM	–	–	–	–	–	–	–
COc1cc([C@@H]2c3cc4c(cc3[C@@H](O[C@@H]3O[C@@H]5CO[C@@H](C)O[C@H]5[C@H](O)[C@H]3O)[C@H]3COC(=O)[C@H]23)OCO4)cc(OC)c1O [ETOPOSIDE]	500 nM	1300 nM	–	–	–	–	–	–	–
CN(C)CCCOc1ccc2c3c(oc2c1)C(=O)c1ccccc1C3=O	1300 nM	2600 nM	340 nM	10000 nM	–	–	–	–	–
CC(C)N(CCOc1cc(O)c2c3c(oc2c1)C(=O)c1ccccc1C3=O)C(C)C	220 nM	1130 nM	89 nM	1000 nM	–	–	–	–	–
CC[C@]1(O)C[C@@H]2CN(CCc3c([nH]c4ccccc34)[C@@](C(=O)OC)(c3cc4c(cc3OC)N(C)[C@H]3[C@@](O)(C(=O)OC)[C@H](OC(C)=O)[C@]5(CC)C=CCN6CC[C@]43[C@@H]65)C2)C1 [VINBLASTINE]	4 nM	5 nM	–	–	–	–	–	–	–
O=C1c2c(O)ccc(O)c2C(=O)c2c(NCCNCCO)ccc(NCCNCCO)c21 [MITOXANTRONE]	20 nM	30 nM	–	–	–	–	–	–	–
O=C1c2ccccc2C(=O)c2c1oc1cc(O)cc(O)c21	1030 nM	1280 nM	220 nM	1000 nM	600 nM	500 nM	–	–	–
Cc1cc(OCCN(C)C)cc2oc3c(c12)C(=O)c1ccccc1C3=O	> 2600 nM	> 2600 nM	1800 nM	–	–	–	–	–	–
O=C1c2ccccc2C(=O)c2c1oc1cc(O)c(Cl)cc21	> 3400 nM	> 3400 nM	6090 nM	10000 nM	–	–	–	–	–
CN(C)CCOc1cc2oc3c(c2c2ccccc12)C(=O)c1ccccc1C3=O	1300 nM	1950 nM	870 nM	–	–	–	inactive	–	–
Cc1cc(O)cc2oc3c(c12)C(=O)c1ccccc1C3=O	> 3500 nM	> 3500 nM	6650 nM	–	–	–	inactive	–	–
CN(C)CCCOc1cc2oc3c(c2c2ccccc12)C(=O)c1ccccc1C3=O	> 2500 nM	> 2500 nM	1390 nM	–	–	–	inactive	–	–
O=c1[nH]cc(F)c(=O)[nH]1 [FLUOROURACIL]	5400 nM	8400 nM	–	–	–	–	–	–	–
CN(C)CCOc1ccc2c3c(oc2c1)C(=O)c1ccccc1C3=O	730 nM	940 nM	300 nM	10000 nM	150 nM	200 nM	–	–	–
O=C1c2ccccc2C(=O)c2c1oc1cc3c(cc21)OCO3	> 40300 nM	> 40300 nM	> 100000 nM	–	–	–	–	–	–
CN(C)CCCOc1cc(O)c2c3c(oc2c1)C(=O)c1ccccc1C3=O	680 nM	680 nM	45 nM	100 nM	–	–	–	–	–
O=C1c2ccccc2C(=O)c2c1oc1cc(O)c3ccccc3c21	> 3200 nM	> 3200 nM	80600 nM	–	–	–	–	–	–
CCN(CC)CCOc1cc(O)c2c3c(oc2c1)C(=O)c1ccccc1C3=O	240 nM	480 nM	98 nM	100 nM	–	–	–	–	–
O=C1c2ccccc2C(=O)c2c1oc1cc(O)ccc21	> 3800 nM	> 3800 nM	7780 nM	10000 nM	–	–	–	–	–
CN(C)CCCOc1cc2oc3c(c2cc1Cl)C(=O)c1ccccc1C3=O	590 nM	590 nM	280 nM	10000 nM	150 nM	170 nM	–	–	–
CN(C)CCOc1cc(O)c2c3c(oc2c1)C(=O)c1ccccc1C3=O	2130 nM	2560 nM	46 nM	100 nM	–	–	–	–	–
CN(C)CCOc1cc2oc3c(c2cc1Cl)C(=O)c1ccccc1C3=O	370 nM	620 nM	240 nM	1000 nM	300 nM	250 nM	–	–	–
CISPLATIN	–	–	–	–	–	–	–	670 nM	6700 nM
